Data taken from ChEMBL document CHEMBL3872204, “Synthesis and immunopotentiating activity of novel isoxazoline functionalized coumarins” (Eur J Med Chem, 2016).
Activity calls are given as the source filed them. The calls are words filed in the database; no cut-off is given here.

What was measured:
Mus musculus [1] = assay: Immunopotentiating activity in sheep RBC-immunized BALB/c mouse assessed as CD8-positive T-cell content in spleen at 0.01 mg/kg, po for 14 days by flow cytometry (reference value: 1.47 +/- 0.04 10^7No_unit); format: functional
Mus musculus [2] = assay: Immunopotentiating activity in sheep RBC-immunized BALB/c mouse assessed as CD4-positive splenic T-cells at 0.1 mg/kg, po for 14 days by flow cytometry (reference value: 20.7 +/- 0.9%); format: functional
Mus musculus [3] = assay: Immunopotentiating activity in sheep RBC-immunized BALB/c mouse assessed as ratio of CD4-positive splenic T-cells to CD8-positive splenic T-cells at 0.01 mg/kg, po for 14 days by flow cytometry (RVB = 1.56 +/- 0.09); format: functional
Mus musculus [4] = assay: Immunopotentiating activity in sheep RBC-immunized BALB/c mouse assessed as increase in IL4 production in splenocytes administered orally for 14 days followed by incubation with ConA for 48 hrs by ELISA; format: functional, cell-based
Mus musculus [5] = assay: Immunopotentiating activity in sheep RBC-immunized BALB/c mouse assessed as B-cell activation by measuring IgM antibody titer in serum at 0.01 mg/kg, po for 14 days measured on day 7 post dose by hemagglutinination technique; format: functional, organism-based
Mus musculus [6] = assay: Immunopotentiating activity in sheep RBC-immunized BALB/c mouse assessed as CD4-positive T-cell content in spleen at 0.1 mg/kg, po for 14 days by flow cytometry (reference value: 2.7 +/- 0.12 10^7No_unit); format: functional
Mus musculus [7] = assay: Immunopotentiating activity in sheep RBC-immunized BALB/c mouse assessed as ratio of CD4-positive splenic T-cells to CD8-positive splenic T-cells at 0.1 mg/kg, po for 14 days by flow cytometry (RVB = 1.56 +/- 0.09); format: functional
Mus musculus [8] = organism: Mus musculus; assay: Cytotoxicity in BALB/c mouse splenocytes at 100 ug/ml measured after 72 hrs by MTT assay; format: toxicity; conditions: splenocyte
Mus musculus [9] = assay: Immunopotentiating activity in sheep RBC-immunized BALB/c mouse assessed as increase in delayed-type hypersensitivity response by measuring left hind foot pad thickness at 0.001 mg/kg, po qd administered 2 hrs post immunization for 7 days measured 24 to 48 hrs post SRBC challenge by spheromicrometer method; format: functional, organism-based
Mus musculus [10] = assay: Immunopotentiating activity in sheep RBC-immunized BALB/c mouse assessed as increase in isolated splenic T-cell proliferation administered orally for 14 days followed by incubation of isolated splenocytes with LPS for 72 hrs by MTT assay; format: functional
Mus musculus [11] = assay: Immunopotentiating activity in sheep RBC-immunized BALB/c mouse assessed as increase in interferon-gamma production in splenocytes administered orally for 14 days followed by incubation with ConA for 48 hrs by ELISA; format: functional, cell-based
Mus musculus [12] = assay: Immunopotentiating activity in sheep RBC-immunized BALB/c mouse assessed as increase in isolated splenic B-cell proliferation administered orally for 14 days followed by incubation of isolated splenocytes with LPS for 72 hrs by MTT assay; format: functional
Mus musculus [13] = assay: Immunopotentiating activity in sheep RBC-immunized BALB/c mouse assessed as CD4-positive T-cell content in spleen at 0.01 mg/kg, po for 14 days by flow cytometry (reference value: 2.7 +/- 0.12 10^7No_unit); format: functional
Splenic lymphocyte [14] = assay: Immunopotentiating activity in splenic lymphocytes (unknown origin) assessed as effect on proliferation by measuring cell viability pretreated followed by incubation of lymphocytes with LPS for 48 hrs by MTT assay; format: functional, cell-based
Mus musculus [15] = assay: Immunopotentiating activity in sheep RBC-immunized BALB/c mouse assessed as ratio of CD4-positive splenic T-cells to CD8-positive splenic T-cells at 0.001 mg/kg, po for 14 days by flow cytometry (RVB = 1.56 +/- 0.09); format: functional
Mus musculus [16] = assay: Immunopotentiating activity in sheep RBC-immunized BALB/c mouse assessed as B-cell activation by measuring IgG antibody titer in serum at 0.01 mg/kg, po for 14 days by hemagglutinination technique; format: functional, organism-based
Mus musculus [17] = assay: Immunopotentiating activity in sheep RBC-immunized BALB/c mouse assessed as increase in isolated splenic […] proliferation administered orally for 14 days followed by incubation of isolated splenocytes with ConA for 72 hrs by MTT assay; format: functional
Mus musculus [18] = assay: Immunopotentiating activity in sheep RBC-immunized BALB/c mouse assessed as CD8-positive splenic T-cells at 0.001 mg/kg, po for 14 days by flow cytometry (reference value: 13.3 +/- 0.34%); format: functional
Mus musculus [19] = assay: Immunopotentiating activity in sheep RBC-immunized BALB/c mouse assessed as CD8-positive splenic T-cells at 0.01 mg/kg, po for 14 days by flow cytometry (reference value: 13.3 +/- 0.34%); format: functional
Mus musculus [20] = assay: Immunopotentiating activity in sheep RBC-immunized BALB/c mouse assessed as B-cell activation by measuring IgG antibody titer in serum at 0.001 mg/kg, po for 14 days by hemagglutinination technique; format: functional, organism-based
Mus musculus [21] = assay: Immunopotentiating activity in sheep RBC-immunized BALB/c mouse assessed as CD4-positive splenic T-cells at 0.01 mg/kg, po for 14 days by flow cytometry (reference value: 20.7 +/- 0.9%); format: functional
Mus musculus [22] = assay: Immunopotentiating activity in sheep RBC-immunized BALB/c mouse assessed as CD4-positive splenic T-cells at 0.001 mg/kg, po for 14 days by flow cytometry (reference value: 20.7 +/- 0.9%); format: functional
Mus musculus [23] = assay: Immunopotentiating activity in sheep RBC-immunized BALB/c mouse assessed as CD8-positive splenic T-cells at 0.1 mg/kg, po for 14 days by flow cytometry (reference value: 13.3 +/- 0.34%); format: functional
Mus musculus [24] = assay: Immunopotentiating activity in sheep RBC-immunized BALB/c mouse assessed as B-cell activation by measuring IgM antibody titer in serum at 0.001 mg/kg, po for 14 days measured on day 7 post dose by hemagglutinination technique; format: functional, organism-based
Splenic lymphocyte [25] = assay: Immunopotentiating activity in splenic lymphocytes (unknown origin) assessed as effect on proliferation by measuring cell viability pretreated followed by incubation of lymphocytes with ConA for 48 hrs by MTT assay; format: functional, cell-based
Mus musculus [26] = assay: Immunopotentiating activity in sheep RBC-immunized BALB/c mouse assessed as B-cell activation by measuring IgG antibody titer in serum at 0.1 mg/kg, po for 14 days by hemagglutinination technique; format: functional, organism-based
Mus musculus [27] = assay: Immunopotentiating activity in sheep RBC-immunized BALB/c mouse assessed as increase in isolated splenic T-cell proliferation administered orally for 14 days followed by incubation of isolated splenocytes with ConA for 72 hrs by MTT assay; format: functional
Mus musculus [28] = assay: Immunopotentiating activity in sheep RBC-immunized BALB/c mouse assessed as CD8-positive T-cell content in spleen at 0.001 mg/kg, po for 14 days by flow cytometry (reference value: 1.47 +/- 0.04 10^7No_unit); format: functional
Mus musculus [29] = assay: Immunopotentiating activity in sheep RBC-immunized BALB/c mouse assessed as B-cell activation by measuring IgM antibody titer in serum at 0.1 mg/kg, po for 14 days measured on day 7 post dose by hemagglutinination technique; format: functional, organism-based
Mus musculus [30] = assay: Immunopotentiating activity in sheep RBC-immunized BALB/c mouse assessed as CD4-positive T-cell content in spleen at 0.001 mg/kg, po for 14 days by flow cytometry (reference value: 2.7 +/- 0.12 10^7No_unit); format: functional
Mus musculus [31] = assay: Immunopotentiating activity in sheep RBC-immunized BALB/c mouse assessed as CD8-positive T-cell content in spleen at 0.1 mg/kg, po for 14 days by flow cytometry (reference value: 1.47 +/- 0.04 10^7No_unit); format: functional
Mus musculus [32] = assay: Immunopotentiating activity in sheep RBC-immunized BALB/c mouse assessed as increase in IL2 production in splenocytes administered orally for 14 days followed by incubation with ConA for 48 hrs by ELISA; format: functional, cell-based
Mus musculus [33] = assay: Immunopotentiating activity in sheep RBC-immunized BALB/c mouse assessed as increase in macrophage production by measuring increase in NO production administered orally for 14 days followed by incubation with LPS for 48 hrs by Griess assay; format: functional

Compound	Activity (Mus musculus [1]) [×10⁷ No_unit]	Activity (Mus musculus [2]) [%]	Ratio (Mus musculus [3])	Activity (Mus musculus [4])	Activity (Mus musculus [5])	Activity (Mus musculus [6]) [×10⁷ No_unit]	Ratio (Mus musculus [7])	Activity (Mus musculus [8])	Activity (Mus musculus [9])	Activity (Mus musculus [10])	Activity (Mus musculus [11])	Activity (Mus musculus [12])	Activity (Mus musculus [13]) [×10⁷ No_unit]	Activity (Splenic lymphocyte [14])	Ratio (Mus musculus [15])	Activity (Mus musculus [16])	Activity (Mus musculus [17])	Activity (Mus musculus [18]) [%]	Activity (Mus musculus [19]) [%]	Activity (Mus musculus [20])	also measured
COc1ccc(C2=NOC(COc3ccc4ccc(=O)oc4c3)C2)c(OC)c1 (stereo unspecified)	1.29	35.3	1.67	Dose-dependent effect	Active	1.67	1.77	Non-Toxic	Active	Dose-dependent effect	Dose-dependent effect	Dose-dependent effect	1.54	Dose-dependent effect	1.32	Active	Dose-dependent effect	15.4	16.2	Active	Activity (Mus musculus [21]): 27.2%; Activity (Mus musculus [22]): 20.3%; Activity (Mus musculus [23]): 19.9%; Activity (Mus musculus [24]): Active; Activity (Splenic lymphocyte [25]): Dose-dependent effect; Activity (Mus musculus [26]): Active; Activity (Mus musculus [27]): Dose-dependent effect; Activity (Mus musculus [28]): 1.19 ×10⁷ No_unit; Activity (Mus musculus [29]): Active; Activity (Mus musculus [30]): 1.16 ×10⁷ No_unit; Activity (Mus musculus [31]): 1.41 ×10⁷ No_unit; Activity (Mus musculus [32]): Dose-dependent effect; Activity (Mus musculus [33]): Dose-dependent effect
COc1ccccc1C1=NOC(COc2ccc3ccc(=O)oc3c2)C1 (stereo unspecified)	1.18	31.1	1.58	Dose-dependent effect	Active	1.51	1.69	Non-Toxic	Active	Dose-dependent effect	Dose-dependent effect	Dose-dependent effect	1.31	Dose-dependent effect	1.32	Active	Dose-dependent effect	15.4	15.3	Active	Activity (Mus musculus [21]): 24.2%; Activity (Mus musculus [22]): 20.3%; Activity (Mus musculus [23]): 18.4%; Activity (Mus musculus [24]): Active; Activity (Splenic lymphocyte [25]): Dose-dependent effect; Activity (Mus musculus [26]): Active; Activity (Mus musculus [27]): Dose-dependent effect; Activity (Mus musculus [28]): 0.88 ×10⁷ No_unit; Activity (Mus musculus [29]): Active; Activity (Mus musculus [30]): 1.02 ×10⁷ No_unit; Activity (Mus musculus [31]): 1.37 ×10⁷ No_unit; Activity (Mus musculus [32]): Dose-dependent effect; Activity (Mus musculus [33]): Dose-dependent effect
